Measured values published in PubChem BioAssay (NCI).
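Values below derive from 48-hour exposures of cells grown in 96-well plates, with endpoints linearly interpolated between the two concentrations bracketing the appropriate inhibition level. At the TGI there is no net growth.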

Experiments:
Test in all cases: NCI tumour cell line growth inhibition, 48 h
[1] = tested on: ACHN renal
[2] = tested on: KM12 colon
[3] = tested on: LOX IMVI melanoma
[4] = tested on: M14 melanoma
[5] = tested on: MCF7 breast
[6] = tested on: NCI-H460 lung
[7] = tested on: OVCAR-5 ovarian
[8] = tested on: SF-268 CNS
[9] = tested on: SK-MEL-2 melanoma
[10] = tested on: SK-MEL-5 melanoma

| Compound | TGI [1] [µM] | TGI [2] [µM] | TGI [3] [µM] | TGI [4] [µM] | TGI [5] [µM] | TGI [6] [µM] | TGI [7] [µM] | TGI [8] [µM] | TGI [9] [µM] | TGI [10] [µM] |
| --- | --- | --- | --- | --- | --- | --- | --- | --- | --- | --- |
| CCOC(=O)Cc1cc(=O)[nH]c(-n2[nH]c(C)c(CCO)c2=O)n1 | > 100 | > 100 | > 100 | > 100 | > 100 | > 100 | > 100 | > 100 | > 100 | > 100 |
| O=C(NNc1nc(-c2ccccc2)cs1)Nc1ccccc1 | > 100 | > 100 |  | > 100 | 62.8 | 50.6 | > 100 | 80.9 | 44.6 | 38.2 |
| CCOC(=O)C1CCCN1C(=O)c1ccccc1Cl (centres undefined) | > 100 | > 100 | > 100 | > 100 | > 100 | > 100 | > 100 | > 100 |  | > 100 |
| CSc1c(C)n([O-])c2cc(Cl)c(Cl)cc2[n+]1=O | 30.7 | > 60.7 | 41.3 | 45.6 | 45 | > 100 | 29.8 | 36.6 | 46 | 34.3 |
| Cc1nccn1S(=O)(=O)c1ccc(Cl)cc1 | > 100 | > 100 | > 100 | > 100 | > 100 | > 100 | > 100 | > 100 | > 100 | > 100 |
| COC(=O)/C=C\C(C#N)(C#N)N=Cc1ccc(Br)cc1 | 8.92 | 29.3 | 5.26 | 22.6 | 17.1 | 40.5 | 35.8 | 31.1 | 44 | 3.92 |
| O=C1c2cc3ncsc3cc2C(=O)c2c(O)ccc(O)c21 | > 100 | > 100 | > 100 | > 100 | > 100 | > 100 | > 100 | > 100 | > 100 | > 100 |
| C=C1CC(O)C2C(=C)C(=O)OC2C2C(C)C(=O)CC12 (centres undefined) | 17.9 | 56.9 | 80.2 | 25.6 | 26.2 | 58 | 30.1 | 45.7 | 38.2 | 47 |
| Cc1cc(OCC(O)CO)ccc1Cl (centres undefined) | > 100 | > 100 | > 100 | > 100 |  | > 100 | > 100 | > 100 | > 100 | > 100 |
| Cc1ccc(S(=O)(=O)NC(=O)NC(CC(=O)O)C(=O)O)cc1 (centres undefined) | > 100 | > 100 | > 100 | > 100 | > 100 | > 100 | > 100 | > 100 | > 100 | > 100 |
| NC(=S)NS(=O)(=O)c1ccc(Cl)cc1 | > 100 | > 100 | > 100 | > 100 | > 100 | > 100 | > 100 | > 100 | > 100 | > 100 |
| CC(=O)c1c(O)cc(O)c(-c2c(C)cc(O)c3c2C(=O)c2cccc(O)c2C3=O)c1O | 25.5 | 33.5 | 27.4 | 51.4 | 29.8 | 31.7 | 41.5 | 36.8 | 34.2 |  |
| CCOP(=O)(Cc1nc(C#N)c(N)o1)OCC | > 100 | > 100 | > 100 |  | > 100 | > 100 | > 100 | > 100 | > 100 | > 100 |
| COc1cccc(N(CN2C(=O)CCC2OC)C(C)=O)c1 (centres undefined) | > 100 | > 100 | > 100 | > 100 | > 100 | > 100 | > 100 | > 100 | > 100 | > 100 |
| CC(C)=C=CP(=O)(O)c1ccccc1 | > 100 | > 100 | > 100 | > 100 | > 100 | > 100 | > 100 | > 100 | > 100 | > 100 |
| O=C(Cn1c(=O)oc2ccc(C(=O)c3cccc(Cl)c3)cc21)c1ccccc1 | > 100 |  | > 100 | > 100 | > 100 | > 100 | > 100 | > 100 | > 100 | > 100 |
| Cc1cc(S(=O)(=O)Nc2n[nH]c(Nc3ccccc3)n2)c(SSc2cc(Cl)c(C)cc2S(=O)(=O)Nc2n[nH]c(Nc3ccccc3)n2)cc1Cl | > 100 | > 100 | > 100 | > 100 | > 10 | > 100 | > 100 | > 100 |  | > 100 |
| Cn1c(-c2c(C3=CC(=O)N(c4ccccc4)C3=O)c3ccccc3n2C)cc2ccccc21 | > 100 | > 100 | > 100 | > 100 | > 100 | > 100 | > 100 |  | > 100 | > 100 |
| Cc1cc(O)c(C(C)C)cc1C(=S)Nc1ccc(Cl)cc1 | 25.7 | 23 | 24 |  | 22.9 | 27.4 | 28.3 | 19.7 | 27.8 | 23.8 |
| CNC(=O)C1OC(n2cnc3c(NCc4cccc(I)c4)nc(Cl)nc32)C(O)C1O (centres undefined) | 24 | 24.3 | 27.2 | 21.9 | 25.4 |  | 27 | 23.5 | 27.8 | 42.2 |
| CC(C)N1[C@@H]2CCCC[C@H]2N(C(C)C)[P+]1=O | > 100 | > 100 |  | > 100 | > 100 | > 100 | > 100 | > 100 |  | > 100 |
| Cc1ccc2c(c1)Nc1ccccc1P2(=O)O | > 100 | > 100 | > 100 | > 100 |  | > 100 | > 100 | > 100 | > 100 | > 100 |
| CCOC(=O)CCC(NC(=O)c1ccc(Nc2nc3ccccc3nc2C(=O)OCC)s1)C(=O)OCC (centres undefined) |  | > 100 | > 100 | > 100 | > 100 | > 100 | > 100 | > 100 | > 100 | > 100 |
| CC(C)(C)OC(=O)NNCC(O)COc1ccccc1 (centres undefined) | > 100 |  | > 100 | > 100 | > 100 | > 100 | > 100 | > 100 | > 100 | > 100 |

| Compound | TGI [1] [µM] | TGI [2] [µM] | TGI [3] [µM] | TGI [4] [µM] | TGI [5] [µM] | TGI [6] [µM] | TGI [7] [µM] | TGI [8] [µM] | TGI [9] [µM] | TGI [10] [µM] |
| --- | --- | --- | --- | --- | --- | --- | --- | --- | --- | --- |
| NNS(=O)(=O)c1ccc(/C=C2\NC(=O)NC2=O)cc1 | > 100 | > 100 | > 100 | > 100 | > 100 |  | > 100 | > 100 | > 100 | > 100 |
| CCOC(=O)CN1C(=O)C(=O)N(c2ccc(OC)c3ccccc23)C1=O | > 100 | > 100 | > 100 | > 100 | > 100 |  | > 100 | > 100 | > 100 | > 100 |
| OC(CCl)CN1CC[N+]2(CC1)CC[N+]1(CCN(CC(O)CCl)CC1)CC2 (centres undefined) | > 50 | > 50 |  | > 50 |  | > 50 |  | > 50 | > 50 | > 50 |
| CC(C)(C)CC(C)(C)NCC(O)COc1ccc(C(C)(C)c2ccc(OCC(O)CNC(C)(C)CC(C)(C)C)cc2)cc1 (centres undefined) | 3.17 | 2.31 | 1.35 | 1.49 |  | 0.782 | 3.32 | 3.06 | 3.28 | 2.67 |
| O=C(O)c1cccc(S(=O)(=O)NN2C(=O)CSC2c2c(O)ccc3ccccc23)c1 (centres undefined) | > 100 | > 100 | 60 | > 100 |  | > 100 | > 100 | 91.5 | > 100 | 62.5 |
| CC1C(c2ccccc2)NC(c2ccccc2)CC1(N)C#N (centres undefined) | > 100 | > 100 | > 100 | > 100 | > 100 | > 100 | > 100 | > 100 |  | > 100 |
| COc1ccc(C2=NN(c3nsc4ccccc34)C(=O)CC2)cc1 | > 100 | > 100 | > 100 | > 100 |  | > 100 | > 100 | > 100 | > 100 | > 100 |
| CC1=NN(c2nc(N)nc(-c3cc4ccccc4oc3=N)n2)C(C)(C)C1 | 34.8 | 34.2 |  | 36 | > 100 | 34.2 | 60.1 | 36.7 | 41.8 | 30.6 |
| CC(C)(CO)CNc1cc(Cl)nc(N)n1 | > 100 | > 100 | > 100 |  | > 100 | > 100 | > 100 | > 100 | > 100 | > 100 |
| Cc1ccc2c(=O)cc(-c3cccc(F)c3)[nH]c2n1 | > 100 | 1.29 | > 100 | > 100 |  |  | > 100 | > 100 |  | 2.16 |
| CCN(CCC#N)C(=O)Nc1ccccc1 | > 100 | > 100 | > 100 | > 100 | > 100 | > 100 | > 100 |  | > 100 | > 100 |
| CSc1nc(-c2ccccc2)nc(=[N+]2CCOCC2)s1 | > 100 | > 100 | > 100 | > 100 |  | > 100 | > 100 | > 100 | > 100 | > 100 |
| Nc1ncc2c(n1)-c1ccccc1OC2 |  | > 100 | > 100 |  | > 100 | > 100 | > 100 | > 100 | > 100 | > 100 |
| CCCCCCCCCCCCCCCCCCNc1nc(=O)n(C2CC(OP(=O)(O)OCC3OC(n4cc(F)c(=O)[nH]c4=O)CC3O)C(CO)O2)cc1F (centres undefined) | > 100 | 27.8 | > 100 | 43.3 | > 100 |  | > 100 | 37.1 | 71 | > 100 |
| Cc1ccc(C(=O)N/N=C(\N=Nc2ccccc2C(=O)O)c2ccc(N(C)C)cc2)cc1 |  | > 100 | > 100 | > 100 | > 100 | > 100 | > 100 | > 100 | > 100 | > 100 |
| O=S(=O)(O)c1cc(N=[N+]([O-])c2ccc(N=Nc3ccccc3)cc2S(=O)(=O)O)ccc1/C=C/c1ccc(N=[N+]([O-])c2ccc(N=Nc3ccccc3)cc2S(=O)(=O)O)cc1S(=O)(=O)O |  | > 100 | > 100 |  | > 100 | > 100 | > 100 | > 100 | > 100 | > 100 |
| COC(=N)CCCl | > 100 | > 100 |  | > 100 | > 100 | > 100 | > 100 | > 100 |  | > 100 |
| Cc1ccsc1/C=N/Nc1cc(C)c2ccccc2n1 | 34.9 | 46 | 25.9 | 34.4 | 30.4 |  | 90.3 | 42.2 | 51.2 | 9 |
| CCCCCCCCCCOc1ccc(N=Nc2nnc(-c3ccc(OCCCCC)cc3)s2)cc1 | > 100 | > 100 | > 100 | > 100 | > 100 | > 100 | > 100 | > 100 |  | > 100 |
| O=c1onc(Nc2ccccc2)n1-c1ccccc1 | > 100 | > 100 | > 100 | > 100 | > 100 | > 100 | > 100 |  | > 100 | > 100 |
| COc1cc(-c2nc(SC)nc3c2CCc2ccccc2-3)cc(OC)c1OC | > 100 | > 100 | > 100 | > 100 | > 100 |  | > 100 | > 100 | > 100 | > 100 |
| COc1ccc(C2=Nc3c(nc(SC)[nH]c3=O)NC(c3ccccc3)C2)cc1 (centres undefined) | 56.7 | 30.2 | > 100 | 66 | 41.8 |  | > 100 |  | 94.4 | 30.1 |
| Cc1ccc(S(=O)(=O)N/N=C\c2c3ccccc3[n+](C)c3ccccc23)cc1 | > 100 | > 100 | 52.9 | 97.9 |  | 50.3 | > 100 | > 100 | > 100 | 98.5 |
